Columns and labels:
[1] = tested on: Z. mays; test: Root hair elongation in maize under insufficient phosphate; format: in vivo, Zea mays; conditions: various nutrient levels, shown under insufficient phosphate conditions, vs DMSO (FIG. 4)
Text: FIG. 4 is a boxplot graph representing the distribution of maximum root hair length in the root apical zone of Z. mays with the control solvent DMSO, strigolactone molecule MBS-127 in DMSO, and strigolactone molecule MBS-128 in DMSO. Stars indicate significant differences relative to the DMSO control (*: adjustedp-value <0.1; p-values were adjusted for multiple-hypothesis testing using a Bonferroni correction). Representative images show root hairs in the root apical zone of plants treated with the control solvent DMSO, strigolactone molecule MBS-127 in DMSO, and strigolactone molecule MBS-128 in DMSO. Scale bars equal 10 mm.

[2] = tested on: A. thaliana Columbia (Col-0) seedlings; test: Desiccation stress survival assay of seedlings; format: in vivo, Arabidopsis thaliana; conditions: 50 μM in media, 0.4% DMSO, three days, 4 hours desiccation, seven days recovery (FIG. 5)
Text: Post germination desiccation is an extreme form of dehydration which can be used as a survival assay for testing abiotic stress tolerance in plants. While desiccation stress is distinct from the gradual onset of drought typically experienced in an agricultural setting, the response in the plant has many commonalities across both cases (Fernando, V. C., & Schroeder, D. F. “Role of ABA in Arabidopsis Salt, Drought, and Desiccation Tolerance,” (2016), pp. 507-518), and increased tolerance in one case can often predict tolerance in the other.
In this experiment sterilized and stratified seeds of the A. thaliana Columbia (Col-0) were planted on growth media (Murashige and Skoog (MS) M404 with vitamins (2.2 g/L), 0.5% sucrose, 0.05% IVIES hydrate, 0.6% PhytoBlend™) and grown for nine days in a growth chamber with continuous light at 22° C. The seedlings were then transplanted to same media supplemented with the control solvent DMSO, strigolactone molecule MBS-127 in DMSO, or strigolactone molecule MBS-128 in DMSO. The final concentration of DMSO in the media was 0.4% and the concentration of MBS-127 and MBS-128 was 50 μM. After three days of growth on the treatment media the seedlings were photographed and then transplanted to dry filter paper and subjected to 4 hours of desiccation stress. […]

[3] = tested on: S. lycopersicum cv. Micro-Tom; test: Stomatal conductance (LI-6400XT) after ABA treatment in tomato; format: in vivo, Solanum lycopersicum; conditions: 500 μM in DMSO (0.1%) applied one hour before ABA (100 μM), compared to ABA alone (FIG. 6)
Text: FIG. 6 is a boxplot showing the distribution of tomato (S. lycopersicum cv. Micro-Tom) stomatal conductance (mmol/m^2/s) measurements taken via LI-6400XT, plotted by treatment. Plants treated with strigolactone molecule MBS-127 prior to treatment with abscisic acid (ABA) show increased stomatal conductance, as measured by gas exchange with the LI-6400XT, compared to plants treated with ABA alone. Stars indicate significant differences relative to ABA (*: adjusted P<0.05, **: adjusted P<0.01; p-values were adjusted for multiple-hypothesis testing using a Bonferroni correction).
An early response and critical component of abiotic stress response signaling in plants is the production and transport of the phytohormone abscisic acid (ABA) (Kuromori, T., et al., “ABA Transport and Plant Water Stress Responses,” Trends in Plant Science (2018) Vol. 23 (6), pp. 513-522). […]

| SMILES | root hair elongation (maximum root hair length in the root apical zone) [1] | survival and vigor of seedlings exposed to severe desiccation stress [2] | leaf (stomatal) conductance after ABA [3] |
| --- | --- | --- | --- |
| COC(=O)/C=C/OC1(C)C=C(C)C(=O)O1 (centres unmarked) [MBS-128, methyl (E)-3-((2,4-dimethyl-5-oxo-2,5-dihydrofuran-2-yl)oxy)acrylate] | induce root hair elongation | increase the survival and vigor |  |
| COC(=O)/C=C/OC1C=C(C)C(=O)O1 (centres unmarked) [MBS-127, 3-(4-Methyl-5-oxo-2,5-dihydro-furan-2-yloxy)-acrylic acid methyl ester] | induce root hair elongation | increase the survival and vigor | protect against the drought stress response related reduction in leaf conductance induced by ABA |

Source: US20230406821A1, “STRIGOLACTONE DERIVATIVES” (Plant Response, Inc., priority 2017, published 2023)
